Results on one compound are retold here after patent publication US4427661A, “Fluorinated cyclic hexapeptide somatostatin analogs” (Merck & Co., Inc., priority 1982, dated 1984).

One experiment relates to growth hormone release. The experiment in a line: Growth Hormone--in vitro: growth hormone release inhibition in cultured rat pituitary cells. To be noted: multiples or fractions of the effect of somatostatin (=1), 4 hours incubation. In kind it is cell-based. On the procedure:
Rat pituitaries were isolated according to the procedures of Vale and Grant "In vitro Pituitary Hormone Secretion Assay for Hypophysioprivic Substances" in Methods in Enzymology. Vol.XXXVII,eds. O'Malley, B. W. and Hardman, J. G. (Academic Press, Inc., New York) pp. 5-93 (1975).
After 4 days in culture, the cells were washed and incubated for 4 hours in Dulbecco modified Eagle's medium in the presence or absence of graded doses of each analog or somatostatin. The medium was then collected for subsequent growth hormone determination by a double antibody radioimmunoassay for rat growth hormone.

In a further experiment the test system is insulin. The experiment in a line: Insulin inhibition in vivo: portal vein insulin in anesthetized rats. More on the design: species or system rat. As to conditions: multiples or fractions of the effect of somatostatin (=1), via external jugular vein, portal vein blood after 5 minutes. How it is done:
Analogs of somatostatin were compared to somatostatin in their ability to decrease the levels of portal vein glucagon and insulin in anesthetized rats. Male Sprague-Dawley rats (Charles River CD) weighing 160-200 g were anethetized with urethane (150 mg/100 g of body weight; Aldrich). Saline or peptides were administered via the external jugular vein. After 5 minutes, the portal vein was exposed, and blood was collected via syringe containing 3 mg of EDTA and placed in chilled tubes containing 100 μl of Trasylol (FBA Pharmaceuticals) for subsequent hormone analysis. Plasma levels of glucagon were determined by the method of Faloona and Unger, Methods of Hormone Radioimmunoassay, Jaffe and Behrman (Eds), Academic Press, New York, Vol. II, pp. 257-527 (1976), utilizing glucagon antisera 30K obtained from R. Unger (Dallas, Tx). Plasma levels of insulin were determined by a modification of the procedure of Herbert et al., J. Clin. Endocrinol. Metab., 25, 1375-1384 (1965).

The test system of experiment [1] is pentagastrin evoked gastric secretion. Nature of the experiment: Inhibition of pentagastrin evoked gastric secretion in the chronic fistula dog. Type of experiment: in vivo. To be noted: Dose 0.8 μg/ml./min., infusion 0-60 min, relative to placebo trial. On the procedure: Compounds were tested for their ability to inhibit pentagastrin evoked gastric secretion in the chronic fistula dog. Female beagle dogs with a chronic gastric fistula were given pentagastrin (2.5 μg./kg./hour, i.v. from -60 to 120 min.) and gastric outputs were collected via the fistula cannula. Samples were analyzed at 30 minute intervals for volume (ml.) and titratable acid (mEq/L) (Titration to pH 7 with 0.01 N NaOH); total acid output (mEq) was calculated as the production of output volume and acid concentration. Test compounds were infused at a constant rate from 0 to 60 minutes. Data have been expressed as percent change of total acid output relative to a placebo trial in the same animals.

With `C[C@H](N)C(=O)NCC(=O)N[C@H]1CSSC[C@@H](C(=O)O)NC(=O)[C@H](CO)NC(=O)[C@H]([C@@H](C)O)NC(=O)[C@H](Cc2ccccc2)NC(=O)[C@H]([C@@H](C)O)NC(=O)[C@H](CCCCN)NC(=O)[C@H](Cc2c[nH]c3ccccc23)NC(=O)[C@H](Cc2ccccc2)NC(=O)[C@H](Cc2ccccc2)NC(=O)[C@H](CC(N)=O)NC(=O)[C@H](CCCCN)NC1=O` [Somatostatin], in the experiment with growth hormone release, the “Growth Hormone Release Inhibition In Vitro” value amounted to 1. For the same compound, the “Insulin Inhibition In Vivo” value in the experiment with insulin is recorded as 1. In addition, in experiment [1] (interval 0-30 min), the “Gastric Secretion % Inhibition Acid Concentration 0-30” value is recorded as 16% and the “Gastric Secretion % Inhibition Vol. 0-30” value worked out at 85%. For the same compound, in experiment [1] (interval 30-60 min), the “Gastric Secretion % Inhibition Acid Concentration 30-60” value worked out at 77% and the “Gastric Secretion % Inhibition Vol. 30-60” value came out at 97%. Moreover, in experiment [1] (interval 60-90 min), the “Gastric Secretion % Inhibition Acid Concentration 60-90” value was found to be 61% and the “Gastric Secretion % Inhibition Vol. 60-90” value was found to be 81%. In addition, in experiment [1] (interval 90-120 min), the “Gastric Secretion % Inhibition Acid Concentration 90-120” value was 14% and the “Gastric Secretion % Inhibition Vol. 90-120” value was found to be 37%.
